Source: article PMC6017976, “Enzyme Kinetics and Molecular Docking Studies on Cytochrome 2B6, 2C19, 2E1, and 3A4 Activities by Sauchinone” (Molecules : A Journal of Synthetic Chemistry and Natural …, 2018)

Experiments:
CYP2A6 = target: T1, CYP2A6 (Homo sapiens, UniProt P11509); test: Reversible inhibition (RI) of CYP2A6 activity in HLMs (cocktail probe assay); conditions: read-out: IC50 on CYP2A6 activity (RI); HLMs; reversible inhibition; 5 μM coumarin; 30 min incubation; inhibitor 0–300 μM
T1 sequence (P11509 1-494): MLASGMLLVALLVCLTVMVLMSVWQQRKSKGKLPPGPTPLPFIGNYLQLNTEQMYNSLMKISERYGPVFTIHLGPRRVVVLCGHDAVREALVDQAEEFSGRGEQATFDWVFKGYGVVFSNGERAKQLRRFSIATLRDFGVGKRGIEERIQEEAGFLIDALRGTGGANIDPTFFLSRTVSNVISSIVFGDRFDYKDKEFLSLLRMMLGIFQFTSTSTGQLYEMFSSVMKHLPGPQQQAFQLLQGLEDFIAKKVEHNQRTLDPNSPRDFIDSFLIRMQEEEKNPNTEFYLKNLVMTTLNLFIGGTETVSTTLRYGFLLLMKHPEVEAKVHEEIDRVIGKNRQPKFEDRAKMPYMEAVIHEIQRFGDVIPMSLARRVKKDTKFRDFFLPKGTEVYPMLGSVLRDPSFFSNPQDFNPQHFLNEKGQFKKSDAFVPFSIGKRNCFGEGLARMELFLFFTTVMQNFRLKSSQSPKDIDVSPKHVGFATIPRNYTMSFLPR

in vivo = conditions: male, ICR, mouse
Protocol: (§1) For analysis of sibutramine, a mobile phase was made, consisting of 10 mM ammonium acetate adjusted to pH 4 with acetic acid: acetonitrile (94:6, v/v) and was eluted at 0.2 mL/min. […] Other parameters of mass spectrometers were the same as those used for analysis of metabolites of CYP substrates.
(§2) Male ICR mice (5 weeks old, weight of 20–25 g) were purchased from the Charles River Company Korea (Orient, Seoul, Korea). […] They were provided free access to food and water. These mice were allowed to acclimate to these conditions for three days prior to inclusion in the experiments.
(§3) Surgical procedures for mice were conducted under tiletamine HCl and zolazepam HCl anesthesia by intramuscular injection. The carotid artery (for blood sampling) cannulation was carried out using catheters (BASi, West Lafayette, IN, USA). Drug administration and blood sampling were performed at 5 h after surgery [55]. […] Other procedures were the same as those used for the sibutramine pharmacokinetic study.
(§4) AUC was calculated using the trapezoidal rule method. Standard methods [56] were used to calculate pharmacokinetic parameters using non-compartmental analysis (WinNonlin 2.1; Pharmasight Corp., Mountain View, CA, USA). Cmax and Tmax were read reversibly from extrapolated data.

[1] = male, ICR, mouse, in vivo
Protocol: as §1, §2, §3, §4

Structure (SMILES) | IC50 (CYP2A6) [nM] | CL/F (in vivo) [mL/min/kg] | Tmax (in vivo) [h] | half-life (in vivo) [h] | CL/F (in vivo; po) [mL/min/kg] | Tmax (in vivo; po) [h] | half-life (in vivo; po) [h] | AUC greater with sauchinone than drug alone (by %) [1] [%] | CL/F slower with sauchinone than drug alone (by %) [1] [%] | Cmax higher with sauchinone than drug alone (by %) [1] [%] | t1/2 smaller with sauchinone than drug alone (by %) [1] [%]
N[C@@H]1C[C@H]1c1ccccc1 (racemic) [tranylcypromine, reference compound] | 1990 |  |  |  |  |  |  |  |  |  | 
COC(=O)[C@H](c1ccccc1Cl)N1CCc2sccc2C1 [Clopidogrel, clopidogrel] |  | 3.81 ± 0.514 | 0.25 | 2.18 ± 0.112 | 2.87 ± 0.225 | 0.25 | 1.77 ± 0.427 | 31.0 | 24.7 | 17.3 | 19.1
